Results on seven compounds are retold here after doi:10.1101/2021.10.07.463234v2 (biorxiv, 2021).

Where “and” joins values, the source holds several entries; their conditions need not be identical. Equal values may be shown once. Where a name gives a salt, the structure may show the parent alone. Read-outs that look alike come from different tables or passages of the source.

In test [1] the target is T1, SARS-CoV-2 Mac1 (Severe acute respiratory syndrome coronavirus 2, UniProt P0DTD1). As to the kind of experiment: biochemical. To be noted: read-out: %inhibition.
In test [2] the target is T1, SARS-CoV-2 Mac1. Put plainly: biochemical. To be noted: for inhibition at 100 µM: read-out: %inhibition.
A further test deals with human MacroD2 (Homo sapiens, UniProt A1Z1Q3). As to the kind of experiment: ADPr-Glo luminescence ADP-ribosylhydrolase assay. The format is biochemical.
For test [3], the target named is T1, SARS-CoV-2 Mac1. As to the kind of experiment: biochemical.

human MacroD2, sequence (A1Z1Q3 whole entry): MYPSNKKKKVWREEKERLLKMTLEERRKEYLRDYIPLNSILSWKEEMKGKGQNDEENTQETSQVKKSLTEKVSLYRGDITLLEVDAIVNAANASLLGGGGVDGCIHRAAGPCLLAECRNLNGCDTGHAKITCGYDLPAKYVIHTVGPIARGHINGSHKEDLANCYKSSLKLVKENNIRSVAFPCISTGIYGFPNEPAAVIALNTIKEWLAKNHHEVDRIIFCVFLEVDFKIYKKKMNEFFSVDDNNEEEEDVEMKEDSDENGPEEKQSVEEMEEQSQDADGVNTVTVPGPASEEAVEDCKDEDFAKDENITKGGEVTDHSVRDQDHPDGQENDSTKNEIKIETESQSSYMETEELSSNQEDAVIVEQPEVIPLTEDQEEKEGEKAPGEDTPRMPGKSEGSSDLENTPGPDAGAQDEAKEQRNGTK

As a reminder, the inhibition is the relative decrease from the control value, in per cent. On to `Oc1ncnc2[nH]ncc12` [Allopurinol], for which the inhibition at 100 µM worked out at 37% at SARS-CoV-2 Mac1 [1] and 0% at SARS-CoV-2 Mac1 [2].

With `O=C(Nc1cc(C(=O)Nc2ccc(S(=O)(=O)O)cc2S(=O)(=O)O)cc(C(=O)Nc2ccc(S(=O)(=O)O)cc2S(=O)(=O)O)c1)Nc1cc(C(=O)Nc2ccc(S(=O)(=O)O)cc2S(=O)(=O)O)cc(C(=O)Nc2ccc(S(=O)(=O)O)cc2S(=O)(=O)O)c1` [NF449 octasodium salt], the inhibition at 100 µM at SARS-CoV-2 Mac1 [1] was 54%.

Take `Nc1nc(Cl)nc2c1ncn2[C@@H]1O[C@H](COP(=O)(O)OP(=O)(O)OP(=O)(O)O)[C@H](O)C1O` (stereo partly drawn) [2-Chloroadenosine triphosphate tetrasodium]: the inhibition at 100 µM on SARS-CoV-2 Mac1 [1] was determined as 57%.

One may read the IC50 as the midpoint of a concentration-inhibition curve. Lower therefore signals higher potency. Turning to `NNc1nnc(NN)c2ccccc12` [dihydralazine], the figures for the IC50 against human MacroD2 and against SARS-CoV-2 Mac1 [3] were 500 to 1830 µM and 485 to 757 µM, respectively.

Consider `Nc1nc(SCc2ccc([N+](=O)[O-])cc2)c2ncn([C@@H]3O[C@H](CO)[C@@H](O)[C@H]3O)c2n1` [S-(4-Nitrobenzyl)-6-thioguanosine], for which the inhibition at 100 µM on SARS-CoV-2 Mac1 [1] was determined as 35%.

As to `N#CC(C#N)=Cc1ccc(O)c(O)c1` [Tyrphostin 23], the inhibition at 100 µM on SARS-CoV-2 Mac1 [1] was determined as 52%.

The %inhibition is how much of the control response was suppressed. Lower therefore signals little suppression. Consider `Cc1nc(Nc2ncc(C(=O)Nc3c(C)cccc3Cl)s2)cc(N2CCN(CCO)CC2)n1` [dasatinib], for which the IC50 was over 2000 µM at human MacroD2 and 37.5 to 57.5 µM against SARS-CoV-2 Mac1 [3]. The “%inhibition” value at SARS-CoV-2 Mac1 [2] (100 µM, inhibitor) is 66.44% and 68.55%. The inhibition at 100 µM at SARS-CoV-2 Mac1 [2] came out at 78.6%.
